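Abbreviation: GI50, concentration required for 50% inhibition of growth. TGI: concentration producing complete growth inhibition.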
Columns and labels:
Experiment in all cases: DTP human tumour cell line panel, 384-well format
NCI/ADR-RES ovarian = system: NCI/ADR-RES ovarian
HCC-2998 colon = system: HCC-2998 colon
MALME-3M melanoma = system: MALME-3M melanoma
SF-295 CNS = system: SF-295 CNS
A549 NSCLC = system: A549 NSCLC
K-562 leukemia = system: K-562 leukemia
MDA-MB-468 breast = system: MDA-MB-468 breast
NCI-H522 lung = system: NCI-H522 lung
PC-3 prostate = system: PC-3 prostate
EKVX NSCLC = system: EKVX NSCLC
SF-268 CNS = system: SF-268 CNS
SNB-19 CNS = system: SNB-19 CNS
SK-MEL-28 melanoma = system: SK-MEL-28 melanoma
BT-549 breast = system: BT-549 breast
M14 melanoma = system: M14 melanoma
786-0 renal = system: 786-0 renal
NCI-H460 NSCLC = system: NCI-H460 NSCLC
SK-OV-3 ovarian = system: SK-OV-3 ovarian
KM12 colon = system: KM12 colon
DU-145 prostate = system: DU-145 prostate
HS 578T breast = system: HS 578T breast
UO-31 renal = system: UO-31 renal
HCT-15 colon = system: HCT-15 colon
HOP-62 NSCLC = system: HOP-62 NSCLC
HOP-92 NSCLC = system: HOP-92 NSCLC
NCI-H23 lung = system: NCI-H23 lung
MDA-MB-231 breast = system: MDA-MB-231 breast
SK-MEL-5 melanoma = system: SK-MEL-5 melanoma
SNB-75 CNS = system: SNB-75 CNS
RPMI-8226 leukemia = system: RPMI-8226 leukemia
MCF7 breast = system: MCF7 breast
SR leukemia = system: SR leukemia
CCRF-CEM leukemia = system: CCRF-CEM leukemia
MOLT-4 leukemia = system: MOLT-4 leukemia
HL-60(TB) leukemia = system: HL-60(TB) leukemia
A498 renal = system: A498 renal
LOX IMVI melanoma = system: LOX IMVI melanoma
IGROV1 ovarian = system: IGROV1 ovarian
NCI-H322M lung = system: NCI-H322M lung
HCT-116 colon = system: HCT-116 colon
HT29 colon = system: HT29 colon
TK-10 renal = system: TK-10 renal
T-47D breast = system: T-47D breast
OVCAR-4 ovarian = system: OVCAR-4 ovarian
UACC-257 melanoma = system: UACC-257 melanoma
NCI-H226 lung = system: NCI-H226 lung
U251 glioblastoma = system: U251 glioblastoma
ACHN renal = system: ACHN renal
OVCAR-8 ovarian = system: OVCAR-8 ovarian
OVCAR-3 ovarian = system: OVCAR-3 ovarian
SN12C renal = system: SN12C renal
RXF 393 renal = system: RXF 393 renal
UACC-62 melanoma = system: UACC-62 melanoma
MDA-MB-435 melanoma = system: MDA-MB-435 melanoma
COLO 205 colon = system: COLO 205 colon
SF-539 CNS = system: SF-539 CNS
CAKI-1 renal = system: CAKI-1 renal
SW-620 colon = system: SW-620 colon

O=C(O)CSc1cc(NS(=O)(=O)c2ccc(Br)cc2)c2ccccc2c1O
GI50 (NCI/ADR-RES ovarian): 2.22 µM | TGI (NCI/ADR-RES ovarian): 4.79 µM | GI50 (HCC-2998 colon): 11.7 µM | TGI (HCC-2998 colon): 23.9 µM | GI50 (MALME-3M melanoma): 1.95 µM | TGI (MALME-3M melanoma): 3.38 µM | GI50 (SF-295 CNS): 6.61 µM | TGI (SF-295 CNS): 19 µM | GI50 (A549 NSCLC): 11.6 µM | TGI (A549 NSCLC): 23.8 µM | GI50 (K-562 leukemia): 1.39 µM | TGI (K-562 leukemia): 2.71 µM | GI50 (MDA-MB-468 breast): 1.39 µM | TGI (MDA-MB-468 breast): 2.7 µM | GI50 (NCI-H522 lung): 7.47 µM | TGI (NCI-H522 lung): 20 µM | GI50 (PC-3 prostate): 2.38 µM | TGI (PC-3 prostate): 5.77 µM | GI50 (EKVX NSCLC): 1.92 µM | TGI (EKVX NSCLC): 3.63 µM | GI50 (SF-268 CNS): 2.4 µM | TGI (SF-268 CNS): 6.02 µM | GI50 (SNB-19 CNS): 5.03 µM | TGI (SNB-19 CNS): 15.4 µM | GI50 (SK-MEL-28 melanoma): 2.25 µM | TGI (SK-MEL-28 melanoma): 4.05 µM | GI50 (BT-549 breast): 2.93 µM | TGI (BT-549 breast): 7.45 µM | GI50 (M14 melanoma): 3.11 µM | TGI (M14 melanoma): 7.41 µM | GI50 ([…]-0 renal): 6.17 µM | TGI (786-0 renal): 18.3 µM | GI50 (NCI-H460 NSCLC): 13.5 µM | TGI (NCI-H460 NSCLC): 26.3 µM | GI50 (SK-OV-3 ovarian): 5.22 µM | TGI (SK-OV-3 ovarian): 16.6 µM | GI50 (KM12 colon): 4.91 µM | TGI (KM12 colon): 16.2 µM | GI50 (DU-145 prostate): 2.37 µM | TGI (DU-145 prostate): 5.24 µM | GI50 (HS 578T breast): 1.63 µM | TGI (HS 578T breast): 3.04 µM | GI50 (UO-31 renal): 2.05 µM | TGI (UO-31 renal): 3.91 µM | GI50 (HCT-15 colon): 10.6 µM | TGI (HCT-15 colon): 22.4 µM | GI50 (HOP-62 NSCLC): 3.02 µM | TGI (HOP-62 NSCLC): 8.45 µM | GI50 (HOP-92 NSCLC): 2.24 µM | TGI (HOP-92 NSCLC): 4.57 µM | GI50 (NCI-H23 lung): 1.82 µM | TGI (NCI-H23 lung): 3.94 µM | GI50 (MDA-MB-231 breast): 1.89 µM | TGI (MDA-MB-231 breast): 3.72 µM | GI50 (SK-MEL-5 melanoma): 1.98 µM | TGI (SK-MEL-5 melanoma): 3.52 µM | GI50 (SNB-75 CNS): 2.19 µM | TGI (SNB-75 CNS): 4.5 µM | GI50 (RPMI-8226 leukemia): 1.63 µM | TGI (RPMI-8226 leukemia): 3.37 µM | GI50 (MCF7 breast): 1.62 µM | TGI (MCF7 breast): 3.15 µM | GI50 (SR leukemia): 2.6 µM | TGI (SR leukemia): 4.08 µM | GI50 (CCRF-CEM leukemia): 2.02 µM | TGI (CCRF-CEM leukemia): 3.45 µM | GI50 (MOLT-4 leukemia): 1.96 µM | TGI (MOLT-4 leukemia): 3.39 µM | GI50 (HL-60(TB) leukemia): 1.82 µM | TGI (HL-60(TB) leukemia): 3.22 µM | GI50 (A498 renal): 16.9 µM | TGI (A498 renal): 30.6 µM | GI50 (LOX IMVI melanoma): 1.79 µM | TGI (LOX IMVI melanoma): 3.26 µM | GI50 (IGROV1 ovarian): 2.69 µM | TGI (IGROV1 ovarian): 6.51 µM | GI50 (NCI-H322M lung): 16.2 µM | TGI (NCI-H322M lung): 29.7 µM | GI50 (HCT-116 colon): 2.19 µM | TGI (HCT-116 colon): 4.15 µM | GI50 (HT29 colon): 3.94 µM | TGI (HT29 colon): 11.9 µM | GI50 (TK-10 renal): 14.2 µM | TGI (TK-10 renal): 27.2 µM | GI50 (T-47D breast): 2.61 µM | TGI (T-47D breast): 5.11 µM | GI50 (OVCAR-4 ovarian): 1.73 µM | TGI (OVCAR-4 ovarian): 3.12 µM | GI50 (UACC-257 melanoma): 1.65 µM | TGI (UACC-257 melanoma): 3.03 µM | GI50 (NCI-H226 lung): 6.7 µM | TGI (NCI-H226 lung): 18.5 µM | GI50 (U251 glioblastoma): 2.55 µM | TGI (U251 glioblastoma): 6.16 µM | GI50 (ACHN renal): 4.15 µM | TGI (ACHN renal): 13.6 µM | GI50 (OVCAR-8 ovarian): 1.92 µM | TGI (OVCAR-8 ovarian): 3.97 µM | GI50 (OVCAR-3 ovarian): 0.404 µM | TGI (OVCAR-3 ovarian): 1.69 µM | GI50 (SN12C renal): 2.03 µM | TGI (SN12C renal): 3.64 µM | GI50 (RXF 393 renal): 1.75 µM | TGI (RXF 393 renal): 3.44 µM | GI50 (UACC-62 melanoma): 1.91 µM | TGI (UACC-62 melanoma): 3.33 µM | GI50 (MDA-MB-435 melanoma): 2 µM | TGI (MDA-MB-435 melanoma): 3.43 µM | GI50 (COLO 205 colon): 3.12 µM | TGI (COLO 205 colon): 9.58 µM | GI50 (SF-539 CNS): 2.2 µM | TGI (SF-539 CNS): 3.72 µM | GI50 (CAKI-1 renal): 10.9 µM | TGI (CAKI-1 renal): 22.8 µM | GI50 (SW-620 colon): 2.42 µM | TGI (SW-620 colon): 6.09 µM
